Results on one substance are retold here after US20260207759A1, “COMPOSITION OF CD40-BINDING MOLECULE AND PHARMACEUTICAL USE THEREOF” (SUZHOU SUNCADIA BIOPHARMACEUTICALS CO., LTD., priority 2022, published 2026).

Assay [1] has as its target T1, CD40 (Homo sapiens, UniProt P25942). Briefly: FACS binding of human-rabbit chimeric anti-CD40 antibodies to Raji cells. As for the experimental part:
Raji cells are of a tumor cell line that overexpresses human CD40. 2E5 Raji cells were inoculated onto a 96-well plate. 100 μL of a test antibody was added, with the highest final concentration of 100 nM. The antibody was 5-fold diluted to 8 concentrations. The plate was incubated at 4° C. for 1 h. The plate was washed once with a washing buffer, and an AF647-conjugated anti-human IgG antibody (Jackson Immunoresearch Laborotories, Cat. #205-609-088) was added at a dilution ratio of 1:500. The plate was incubated at 4° C. for 30 min. The plate was washed once with the washing buffer, and fluorescence intensity was measured using a flow cytometer. The binding EC50 values of the anti-CD40 antibodies for CD40 were calculated. The anti-CD40 antagonistic antibody CFZ533 (i.e., iscalimab, Nova) was used as a positive control, and the heavy and light chain variable region sequences were derived from sequence 5 and sequence 2 of U.S. Pat. No. 8,277,810B, respectively.
Target sequence in this assay (P25942 21-277): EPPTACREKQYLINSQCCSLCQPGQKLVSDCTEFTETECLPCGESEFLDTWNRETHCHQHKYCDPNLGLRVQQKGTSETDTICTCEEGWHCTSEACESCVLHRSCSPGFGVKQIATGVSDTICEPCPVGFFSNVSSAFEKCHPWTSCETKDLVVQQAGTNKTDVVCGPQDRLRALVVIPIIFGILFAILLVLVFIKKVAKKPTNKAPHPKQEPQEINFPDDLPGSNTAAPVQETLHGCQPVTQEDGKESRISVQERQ

Assay [2] addresses T1, CD40. Put plainly: SPR (Biacore) affinity of anti-CD40 antibodies for human CD40. As to conditions: mobile phase Human CD40. Format: binding. Also on record: Glu21-Arg193; purchased Acrobiosystems Inc. CD0-H5228. Here is the method:
The test antibody was affinity-captured on an anti-human Fc chip, and a series of concentrations of His-tagged human or cynomolgus monkey CD40 antigen were allowed to flow over the chip surface. Reaction signals were detected in real time using a Biacore instrument, and thus association and dissociation curves were obtained. The buffer used in the experiment was HBS-EP+10× buffer solution (Cat. #BR-1006-69, GE) diluted to 1×(pH 7.4) with D. I. Water. Fitting was performed on the data obtained from the experiment using a (1:1) Binding model to obtain affinity values.
Background: SPR reads the build-up and loss of mass on a sensor chip optically.
Target sequence in this assay (P25942 21-193): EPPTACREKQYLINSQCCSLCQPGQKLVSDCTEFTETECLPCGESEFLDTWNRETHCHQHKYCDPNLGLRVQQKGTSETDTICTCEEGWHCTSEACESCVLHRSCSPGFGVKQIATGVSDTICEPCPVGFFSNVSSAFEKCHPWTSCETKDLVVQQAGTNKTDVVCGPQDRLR

Assay [3] deals with human CD40 transgenic mice. Put plainly: Mouse skin graft rejection model (antibodies, tacrolimus combination). Format: in vivo. The source says:
Male Balb/c mice, 6 weeks old, were purchased from the Laboratory Animal Management Department, Shanghai Institute of Planned Parenthood Research. Housing environment: SPF; certification number: 20180006023393.
On day-2 of the experiment, the mice were intraperitoneally injected with tacrolimus FK506 or CD40 antagonistic antibodies. On day 0 of the experiment, donor Balb/c mice and C57BL6/J mice were anesthetized with 4% chloral hydrate. The tails of the donor mice were removed, and full circles of skin, 1 cm in length, were isolated from the tails. The hair on the acceptor mice's back was removed, and an incision was made along the skin layer. An equal area of skin was removed while preserving the back fat and connective tissue. The donor skin was placed on the acceptor mice's incision site, and the incision was closed with glue. The mice were then placed back in cages to recover.
The mice were dosed according to the administration regimens in Table 16. After 7 days of recovery, the mouse skin survival was observed daily and rejection scores were recorded.

The target of assay [4] is T1, CD40. Put plainly: Inhibition of CD40 reporter gene cell activity (HEK-Blue CD40L cells), humanized antibodies. Format: cell-based. Also on record: host or cells: HEK-Blue CD40L cells. As for the experimental part: HEK-Blue CD40L cells were purchased from Invivogen (Cat. #hkb-cd40). The cells were stably transfected with the human CD40 gene and the NF-kB-mediated SEAP genome. The activation level of the CD40 signaling pathway can be characterized by measuring the amount of secreted SEAP in the supernatant using QUANTI-Blue, the substrate of SEAP. In the assays, the inhibitory effects of the CD40 antagonistic antibodies on the CD40L-induced HEK-Blue CD40L cell activation were measured, and the in vitro cell activity of the CD40 antagonistic antibodies was assessed based on IC50.
HEK-Blue CD40L cells were cultured in a DMEM medium containing 10% FBS, 100 μg/mL Normocin, 100 μg/mL Zeocin, and 30 µg/mL Blasticidin, with 2-3 passages a week. HEK-Blue CD40L cells were plated at 5E4 cells/well into a 96-well cell culture plate (the medium was DMEM containing 10% FBS and 100 μg/mL Normocin) and incubated overnight. […] CD40L-his (R&D, 2706-CL-025) and anti-His antibody (R&D, MAB050-500) were added, and the plate was incubated overnight. After cell centrifugation, 20 μL of the cell supernatant was transferred to a new 96-well white plate, and 180 μL of QUANTI-Blue substrate solution was added. […] The absorbance at 620 nm was measured with an Envision microplate reader, and IC50 values were calculated and used to assess the in vitro cell activity of the CD40 antagonistic antibodies.
Target sequence in this assay (P25942 21-277): as the sequence (P25942 21-277) above
On the technique in general: In a reporter assay the amount or activity of a reporter protein is the signal.

Broadly, the EC50 is the concentration that produces a half-maximal response. Low readings indicate an effect from little substance, high ones a need for much substance. By Kd is commonly meant the equilibrium constant for the complex coming apart. A lower Kd goes with a tighter complex. Usually IC50 stands for the concentration that inhibits the measured activity by half. Low readings indicate higher potency, high ones lower potency.

“CFZ533: anti-CD40 antagonistic antibody CFZ533 (i.e., iscalimab), positive control, variable regions from U.S. Pat. No. 8,277,810B”: in assay [1], the midpoint of the response, the EC50, lay at 2.41 nM. Besides, in assay [2], the “Ka” value worked out at 688000 M⁻¹ s⁻¹; the dissociation constant Kd came to 0.205 nM; the “koff (dissociation rate constant, 1/s)” value amounted to 0.000141 s⁻¹. For the same substance, the “Day-15 skin graft survival rate (%)” value in assay [3] (3 mpk ip) was 0%. Besides, the “Skin graft score, 8 days” value in assay [3] (3 mpk, score 3 (best) to 0 (rejected)) worked out at 2.7. In assay [3] (3 mpk, score 3 to 0), the “Skin graft score, 10 days” value was 2.1; the “Skin graft score, 15 days” value is reported as 0; the “Skin graft score, 20 days” value is 0. Further, the “Day-15 skin graft survival rate (%)” value in assay [3] (10 mpk ip) is recorded as 0%. Further, in assay [3] (10 mpk, score 3 to 0), the “Skin graft score, 8 days” value is 2.9; the “Skin graft score, 10 days” value is listed as 2.1; the “Skin graft score, 15 days” value is 0; the “Skin graft score, 20 days” value is listed as 0. This substance also yielded an IC50 in assay [4] (Experiment 1) of 0.36 nM. For the same substance, the IC50 in assay [4] (Experiment 2) came to 0.35 nM.
